Experiments:
IGF1R tyrosine kinase = target: T1, IGF1R tyrosine kinase (Homo sapiens, UniProt P08069); test: IGF1R tyrosine kinase assay (Kinase-Glo ATP depletion or PT66/PT100 AlphaScreen); details: biochemical tyrosine kinase assay
T1 construct: 6×His- or GST-tagged kinase domain fragments of the corresponding RTKs expressed in baculovirus system; host or cells: baculovirus system
Method in brief: (§1)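 Phosphorylation of poly(Glu-Tyr) by baculovirus-made kinase domains, 10 μM ATP, measured either as ATP depletion (Kinase-Glo, 37° C, 1 h) or phosphotyrosine AlphaScreen (room temperature, 30 min plus 60 min with beads).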

Karpas-299 = test: Cell proliferation inhibition, Cell Titer-Glo, Karpas-299; type: cell-based; details: Homo sapiens; cell proliferation assay, Karpas-299 cells
Method in brief: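 In this standard 3-day proliferation assay, Karpas 299 cells plated at 2500-5000 cells per well in 384-well white, clear-bottomed plates were treated with compound dilutions. Cell Titer-Glo developing reagent was added following the manufacturer's protocol, luminescence reflecting ATP content was read on a multiwell plate reader, and IC50 curves were generated.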

K562 = test: Cell proliferation inhibition, Cell Titer-Glo, K562; type: cell-based; details: Homo sapiens; cell proliferation assay, K562 cells
Method in brief: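 Proliferation inhibition in human K562 cells was assessed in a standard 3-day assay. Cells (2500-5000 per well) in 384-well white, clear-bottomed plates received serial compound dilutions, then Cell Titer-Glo reagent was added per the manufacturer's protocol. Luminescence reflecting ATP content of metabolically active cells was counted in a multiwell reader, and IC50 curves were generated.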

Jak2 = target: T2, Jak2 (Homo sapiens, UniProt O60674); test: Tyrosine kinase assay (Kinase-Glo or AlphaScreen), Jak2; details: biochemical tyrosine kinase assay
T2 construct: 6×His- or GST-tagged kinase domain fragments of the corresponding RTKs expressed in baculovirus system; host or cells: baculovirus system
T2 sequence (O60674 849-1124 limits assumed, species assumed): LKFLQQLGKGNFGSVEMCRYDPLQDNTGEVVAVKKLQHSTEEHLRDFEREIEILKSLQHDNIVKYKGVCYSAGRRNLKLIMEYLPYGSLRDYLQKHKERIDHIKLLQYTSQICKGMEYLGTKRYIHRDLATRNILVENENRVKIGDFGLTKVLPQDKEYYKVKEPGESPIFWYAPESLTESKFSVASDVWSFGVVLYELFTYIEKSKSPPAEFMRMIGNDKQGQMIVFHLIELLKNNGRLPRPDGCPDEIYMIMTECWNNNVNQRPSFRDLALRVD
Method in brief: as §1

Ba/F3 = test: Cell proliferation inhibition, Cell Titer-Glo, Ba/F3; type: cell-based; details: Mus musculus, BaF3; cell proliferation assay, Ba/F3 cells
Method in brief: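 This standard 3-day proliferation assay used Ba/F3 cells plated in 384-well white plates with clear bottoms at 2500-5000 cells per well and treated with compound dilutions. Viable cell number was determined by mixing in Cell Titer-Glo developing reagent according to the manufacturer's protocol and counting luminescence. Percent viability relative to day 0 and untreated wells produced IC50 curves.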

InsR = target: T3, InsR (Homo sapiens, UniProt P06213); test: Tyrosine kinase assay (Kinase-Glo or AlphaScreen), InsR; details: biochemical tyrosine kinase assay
T3 construct: 6×His- or GST-tagged kinase domain fragments of the corresponding RTKs expressed in baculovirus system; host or cells: baculovirus system
T3 sequence (P06213 1023-1298 limits assumed, species assumed): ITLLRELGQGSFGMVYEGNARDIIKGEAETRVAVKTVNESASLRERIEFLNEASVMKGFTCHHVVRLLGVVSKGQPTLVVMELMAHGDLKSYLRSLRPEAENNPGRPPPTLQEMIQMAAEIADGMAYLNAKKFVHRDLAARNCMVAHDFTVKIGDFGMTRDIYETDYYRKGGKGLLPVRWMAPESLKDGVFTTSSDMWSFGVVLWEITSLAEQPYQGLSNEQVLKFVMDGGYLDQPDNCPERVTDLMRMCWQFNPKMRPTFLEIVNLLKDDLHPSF
Method in brief: as §1

H929 (multiple myeloma) = test: Cell proliferation inhibition, Cell Titer-Glo, H929; type: cell-based; details: Homo sapiens, NCI-H929; cell proliferation assay, H929 cells
Method: IGF1R and other tyrosine kinase inhibitors can inhibit the proliferation of certain cancer cell lines indicating their possible therapeutic utility for treating the corresponding cancer types. Cancer cell lines of interest and control normal lines, including CHO, HEK293, BA/F3, MM1, H929, COLO205, PC3, DU145, MCF7, Panc1, ACHN, Hep G2, H460, K562, TT, U87-G, CAOV-3, SK-MEL5, Karpas 299, are plated in white, clear-bottomed 384-well cell culture plates at 2500-5000 cells per well and supplied with dilutions of tested compounds After a desired period of time (typically 3 days), the number of viable cells is quantitated by using Cell Titer-Glo Luminescent Cell Viability Assay (Promega), a cell proliferation assay system based on detection of total amount of ATP present as a measure of cell metabolic activity. The plated cells are mixed with the Cell Titer-Glo developing reagent and counted in a luminescence multiwell plate reader according to the standard manufacturer's protocol to generate IC50 curves for cell proliferation inhibition.
IGF1R and other tyrosine kinase inhibitors can inhibit the proliferation of certain cancer cell lines indicating their possible therapeutic utility for treating the corresponding cancer types. Cancer cell lines of interest and control normal lines, including CHO, HEK293, BA/F3, COLO205, PC3, DU145, MCF7, Panc1, ACHN, Hep G2, H460, K562, TT, U87-MG, CAOV-3, SK-MEL5, Karpas 299 and human multiple myeloma cell lines H929, MM1s, MM1r, UTMC2, CPM2, KMS11, My5, KMS12PE, My7, JJN3, KMS18, U266, SKMM2, RPMI-8226 are plated in white, clear-bottomed 384-well cell culture plates at 2500-5000 cells per well and supplied with dilutions of tested compounds After a desired period of time (typically 3 days), the number of viable cells is quantitated by using Cell Titer-Glo Luminescent Cell Viability Assay (Promega), a cell proliferation assay system based on detection of total amount of ATP present as a measure of cell metabolic activity. The plated cells are mixed with the Cell Titer-Glo developing reagent and counted in a luminescence multiwell plate reader according to the standard manufacturer's protocol to generate IC50 curves for cell proliferation inhibition. Results are typically reported as percent of growth (% viability =(OD72h(compound)−ODday0))/(OD72h(no compound)−ODday0). Alternatively, viable cells are quantitated by using the conventional colorimetric MTT assay. The MTT assay is based on the cleavage of the yellow tetrazolium salt MTT to purple formazan crystal by metabolic active cells. The formazan is then solubilized, and the concentration determined by optical density at 570 nm. The cells plated and incubated with a compound as described above are supplemented with the solution of MTT and incubated for 2-3 hours. The growth medium is removed and dimethyl sulfoxide is added into each well to dissolve the formazan. The absorbance is measured on an ELISA plate reader with a test wavelength of 570 nm and a background subtraction wavelength of 630 nm to obtain sample signal (OD570-OD630). […] The results are reported in terms of IC50 value for a particular compound and a cell line in the standard 3-day proliferation assay using Cell Titer-Glo. […] The results are reported in terms of IC50 value for a particular compound and a cell line in the standard 3-day proliferation assay using MTT assay.

Alk = target: T4, Alk (Homo sapiens, UniProt Q9UM73); test: Tyrosine kinase assay (Kinase-Glo or AlphaScreen), Alk; details: biochemical tyrosine kinase assay
T4 construct: 6×His- or GST-tagged kinase domain fragments of the corresponding RTKs expressed in baculovirus system; host or cells: baculovirus system
T4 sequence (Q9UM73 1116-1392 limits assumed, species assumed): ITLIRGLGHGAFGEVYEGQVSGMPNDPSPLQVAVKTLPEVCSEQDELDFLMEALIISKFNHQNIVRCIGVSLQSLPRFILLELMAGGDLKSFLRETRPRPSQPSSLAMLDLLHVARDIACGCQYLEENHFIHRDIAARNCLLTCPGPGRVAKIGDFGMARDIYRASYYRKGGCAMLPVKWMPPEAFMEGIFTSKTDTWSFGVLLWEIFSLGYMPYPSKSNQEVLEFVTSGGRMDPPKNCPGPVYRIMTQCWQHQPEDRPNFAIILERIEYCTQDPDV
Method in brief: as §1

IGF1 receptor = target: T5, IGF1 receptor (Homo sapiens, UniProt P08069); test: ELISA-based assay of IGF1 receptor autophosphorylation inhibition in cells; type: cell-based; details: IGF1R phosphorylation inhibition in MCF7 cells
T5 construct: MCF7 human breast cancer cells expressing IGF1 receptor; endogenous in cells; host or cells: MCF7 human breast cancer cells
T5 sequence (P08069 741-1367 limits assumed): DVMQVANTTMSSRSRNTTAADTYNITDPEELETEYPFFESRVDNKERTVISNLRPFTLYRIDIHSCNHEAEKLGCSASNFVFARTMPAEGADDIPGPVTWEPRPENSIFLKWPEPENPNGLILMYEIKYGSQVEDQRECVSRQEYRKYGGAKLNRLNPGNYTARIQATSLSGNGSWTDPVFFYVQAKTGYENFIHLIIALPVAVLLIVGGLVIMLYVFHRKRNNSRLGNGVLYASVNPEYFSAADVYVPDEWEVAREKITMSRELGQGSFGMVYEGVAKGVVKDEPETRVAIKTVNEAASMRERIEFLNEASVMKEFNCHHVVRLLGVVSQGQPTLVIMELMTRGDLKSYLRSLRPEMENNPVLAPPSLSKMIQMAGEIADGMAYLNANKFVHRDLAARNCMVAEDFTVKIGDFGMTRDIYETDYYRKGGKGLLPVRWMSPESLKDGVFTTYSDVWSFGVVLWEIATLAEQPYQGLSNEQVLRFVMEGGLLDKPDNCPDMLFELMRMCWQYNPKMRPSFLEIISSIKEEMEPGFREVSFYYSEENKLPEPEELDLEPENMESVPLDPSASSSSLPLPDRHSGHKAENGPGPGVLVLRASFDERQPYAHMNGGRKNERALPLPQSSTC
T5 sequence (P08069 31-736 partner limits assumed): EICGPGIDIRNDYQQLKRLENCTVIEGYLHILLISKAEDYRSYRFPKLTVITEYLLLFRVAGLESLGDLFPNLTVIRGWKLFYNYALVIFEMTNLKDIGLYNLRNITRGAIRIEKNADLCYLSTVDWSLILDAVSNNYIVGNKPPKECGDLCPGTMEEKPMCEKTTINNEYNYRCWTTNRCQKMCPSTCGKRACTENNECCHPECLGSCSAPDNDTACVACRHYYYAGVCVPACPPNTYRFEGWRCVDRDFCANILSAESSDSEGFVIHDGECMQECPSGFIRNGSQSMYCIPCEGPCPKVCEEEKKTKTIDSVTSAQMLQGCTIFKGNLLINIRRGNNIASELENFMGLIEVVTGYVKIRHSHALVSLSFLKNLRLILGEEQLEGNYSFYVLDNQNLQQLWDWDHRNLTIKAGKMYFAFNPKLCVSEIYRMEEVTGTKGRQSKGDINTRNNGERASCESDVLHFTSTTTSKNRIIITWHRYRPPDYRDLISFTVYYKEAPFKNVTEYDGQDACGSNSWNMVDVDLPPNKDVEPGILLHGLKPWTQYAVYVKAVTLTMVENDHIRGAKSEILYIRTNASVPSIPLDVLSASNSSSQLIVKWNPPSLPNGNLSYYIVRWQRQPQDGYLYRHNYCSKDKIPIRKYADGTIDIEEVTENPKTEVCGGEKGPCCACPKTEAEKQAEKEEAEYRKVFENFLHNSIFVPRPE
Method: In another embodiment, compounds that interact with the IGF1R kinase domain are tested in a cell-based assay system. In accordance with this embodiment, cells expressing a full-length IGF1 receptor or a fragment thereof containing the IGF1R kinase domain, are contacted with a candidate or a control compound and the ability of the compound to block tyrosine kinase activity of IGF1R within a cell is determined. This assay may be used to screen a single compound or a large library of candidate compounds. Typically, the cells or cell lines are of mammalian origin and they can express the IGF1 receptor, or functional IGF1R kinase domain fragment, endogenously or be genetically engineered to express the IGF1R, or functional fragment thereof. The ability of the candidate compound to inhibit IGF1R kinase activity can be determined by methods known to those skilled in the art. For example, the inhibition can be determined by ELISA-type assay or Western blot analysis with cell lysates or immunoprecipitated IGF1R receptor using various anti-IGF1R and anti-phosphotyrosine antibodies.
In general, cells expressing IGF1R are treated with modulators (i.e., inhibitors or activators) of IGF1R kinase activity and cell lysates are produced from these treated cells. IGF1Rs are isolated from the lysate by immunoprecipitation and analyzed for phosphotyrosine content. Alternatively, or in addition, cellular protein substrates phosphorylated by IGFR may be immunoprecipitated from the lysates and their degree of tyrosine phosphorylation determined.
MCF7 human breast cancer cells expressing IGF1 receptor or an engineered […] fibroblast cell line NIH 3T3 overexpressing full-length IGF1R are an exemplary cellular models in which to perform such assays. Such cells may be maintained in DMEM medium supplemented with 10% fetal bovine serum (FBS), 4% L-glutamine, 1% antibiotic solution (penicillin-Streptomycin) in a humidified atmosphere of 95% air and 5% CO2 at 37° C. Confluent cells in T175 cell culture flasks are incubated overnight with serum-free DMEM medium. After the serum starvation step, the cells are detached and split into a standard 96-well cell culture plate (one T175 flask per plate, 30 μl of cell suspension per plate well). Tested inhibitors from their 10 mM stock solutions in DMSO are subsequently added at various concentrations in serum-free DMEM medium for 1 hour incubation at 37° C. in CO2-incubator; total DMSO concentration in both treated and control wells is adjusted to 1%. Cells are then stimulated for 10 minutes with 100 nM IGF-1 added in 30 μl DMEM. After treatment, cells are lysed by addition of 30 μl of 4× lysis buffer (phosphate-buffered saline (PBS), 2% Triton-X100, 1 mM phenylmethylsulphonyl fluoride (PMSF) and 8 mM activated orthovanadate), mixing and incubation for 15 minute at room temperature. To prepare assay plates, 96-well ELISA Plates (Pierce Chemical, Reacti-bind plates) were coated by goat-anti-rabbit Fc antiserum by adding 0.25 μg antiserum per well in 0.2M sodium bicarbonate buffer per well and incubating overnight at 4° C. After incubation, the plate is washed three times by PBS with 0.02% Tween-20, supplied with 25 ng/50 μl per well of anti-IGF1R antibody (C-20, Santa Cruz Biotechnology) and incubated for several hours to overnight. Prior to the addition of the prepared cellular lysates, the antibody solution is aspirated, wells washed with PBS and supplied with 25 μl per well of Starting Block buffer (Pierce Chemical).
To measure tyrosine phosphorylation of the beta-subunits of the IGF1R, 25-50 μl of the lysates are transferred from the stimulation plate to the wells of the prepared assay plate and incubated overnight at 4° C. The wells are washed with PBS with 0.02% Tween-20, incubated with 50 μl of 1:3000 dilution of anti-phosphotyrosine 4G10-HRP antibody conjugate (Upstate Biotechnology) for 2 hours at room temperature and washed again. […]

T1 sequence (P08069 999-1274 limits assumed): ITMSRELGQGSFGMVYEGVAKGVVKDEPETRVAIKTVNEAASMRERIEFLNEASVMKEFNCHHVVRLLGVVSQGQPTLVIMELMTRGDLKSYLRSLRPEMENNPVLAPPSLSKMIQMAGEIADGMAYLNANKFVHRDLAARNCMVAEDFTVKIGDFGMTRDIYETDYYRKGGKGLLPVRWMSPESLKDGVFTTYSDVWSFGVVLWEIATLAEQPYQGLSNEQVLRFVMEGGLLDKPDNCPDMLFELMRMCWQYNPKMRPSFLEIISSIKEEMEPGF

| Structure (SMILES) | IC50 (IGF1R tyrosine kinase) [nM] | IC50 (Karpas-299) [µM] | IC50 (K562) [µM] | IC50 (Jak2) [µM] | IC50 (Ba/F3) [µM] | IC50 (InsR) [nM] | IC50 (H929 (multiple myeloma)) [µM] | IC50 (Alk) [µM] | IC50 (IGF1 receptor) [µM] |
| --- | --- | --- | --- | --- | --- | --- | --- | --- | --- |
| Cc1c(Cl)cccc1OC[C@H](O)CNc1cc[nH]c(=O)c1-c1nc2cc3c(cc2[nH]1)C(=O)N(C1CCN(CCO)CC1)C3=O [compound 124] | 500 to 5000 | 5 to 15 | > 15 | 0.5 to 5 | > 15 | 500 to 5000 | > 15 | 0.5 to 5 | – |
| O=C1c2cc3nc(-c4c(NC[C@@H](O)c5cccc(Cl)c5)cc[nH]c4=O)[nH]c3cc2C(=O)N1CCCN1CCCC1 [compound 35] | < 500 | > 15 | > 15 | 0.5 to 5 | > 15 | < 500 | 5 to 15 | 0.5 to 5 | – |
| O=C1c2cc3nc(-c4c(NC[C@@H](O)COc5c(F)ccc(Cl)c5F)cc[nH]c4=O)[nH]c3cc2C(=O)N1C1CCN(CCCO)CC1 [compound 136] | < 500 | > 15 | > 15 | 0.5 to 5 | > 15 | 500 to 5000 | > 15 | 0.5 to 5 | – |
| COc1ccc(OCC(O)CNc2cc[nH]c(=O)c2-c2nc3cc4c(cc3[nH]2)C(=O)N(C2CCN(C)CC2)C4=O)cc1 (stereo not drawn) [compound 42] | < 500 | > 15 | 5 to 15 | 5 to 15 | > 15 | 500 to 5000 | 5 to 15 | 5 to 15 | – |
| O=C1c2cc3nc(-c4c(NC[C@@H](O)c5cccc(Cl)c5)cc[nH]c4=O)[nH]c3cc2C(=O)N1CCN1CCCC1 [compound 17] | – | – | – | – | – | – | – | – | > 15 |
| Cc1ccc(OC[C@H](O)CNc2cc[nH]c(=O)c2-c2nc3cc4c(cc3[nH]2)C(=O)N(C2CCN(CCN(C)C)CC2)C4=O)c(C)c1 [compound 126] | < 500 | 0.5 to 5 | 5 to 15 | 0.5 to 5 | 0.5 to 5 | 500 to 5000 | 5 to 15 | 5 to 15 | – |
| Cc1ccc(OC[C@H](O)CNc2cc[nH]c(=O)c2-c2nc3c(C)c4c(cc3[nH]2)C(=O)N(C2CCN(C)CC2)C4=O)c(C)c1Cl [compound 137] | 500 to 5000 | > 15 | > 15 | 0.5 to 5 | > 15 | < 500 | > 15 | 5 to 15 | – |
| COc1cc(C#N)ccc1OC[C@H](O)CNc1ccnc(O)c1-c1nc2cc3c(cc2[nH]1)C(=O)N(C1CCN(C)CC1)C3=O [compound 90] | 5000 to 15000 | 0.5 to 5 | 0.5 to 5 | 0.5 to 5 | 5 to 15 | 5000 to 15000 | 5 to 15 | > 15 | – |
| COc1ccccc1OCC(O)CNc1cc[nH]c(=O)c1-c1nc2cc3c(cc2[nH]1)C(=O)N(C1CCN(C)CC1)C3=O (stereo not drawn) [compound 41] | 500 to 5000 | 0.5 to 5 | 5 to 15 | 5 to 15 | 0.5 to 5 | 500 to 5000 | 5 to 15 | 5 to 15 | – |
| COc1ccc2c(ccn2C[C@H](O)CNc2cc[nH]c(=O)c2-c2nc3cc4c(cc3[nH]2)C(=O)N(C2CCN(C)CC2)C4=O)c1 [compound 113] | 500 to 5000 | > 15 | > 15 | 0.5 to 5 | > 15 | 500 to 5000 | > 15 | < 0.5 | – |
| Cc1ccc(OC[C@H](O)CNc2cc[nH]c(=O)c2-c2nc3cc4c(cc3[nH]2)C(=O)N(CC2CCN(CCO)CC2)C4=O)c(C)c1 [compound 118] | < 500 | 5 to 15 | > 15 | 0.5 to 5 | > 15 | < 500 | > 15 | 0.5 to 5 | – |

— patent US8063225B2, “Tricyclic compound derivatives useful in the treatment of neoplastic diseases, inflammatory disorders and immunomodulatory disorders” (Chembridge Corporation, priority 2006, dated 2011)
